Earlier results on one molecule are cited in patent publication US9255091B2, “Benzothiazole-based pyridinium compounds” (The University of Montana, priority 2011, dated 2016).

In this series the target is AChE P-site (Homo sapiens (Human), UniProt P22303). The conditions noted are these: binds selectively to the AChE P-site; read-out: equilibrium dissociation constant.
Sequence of AChE P-site (P22303 32-614 limits assumed): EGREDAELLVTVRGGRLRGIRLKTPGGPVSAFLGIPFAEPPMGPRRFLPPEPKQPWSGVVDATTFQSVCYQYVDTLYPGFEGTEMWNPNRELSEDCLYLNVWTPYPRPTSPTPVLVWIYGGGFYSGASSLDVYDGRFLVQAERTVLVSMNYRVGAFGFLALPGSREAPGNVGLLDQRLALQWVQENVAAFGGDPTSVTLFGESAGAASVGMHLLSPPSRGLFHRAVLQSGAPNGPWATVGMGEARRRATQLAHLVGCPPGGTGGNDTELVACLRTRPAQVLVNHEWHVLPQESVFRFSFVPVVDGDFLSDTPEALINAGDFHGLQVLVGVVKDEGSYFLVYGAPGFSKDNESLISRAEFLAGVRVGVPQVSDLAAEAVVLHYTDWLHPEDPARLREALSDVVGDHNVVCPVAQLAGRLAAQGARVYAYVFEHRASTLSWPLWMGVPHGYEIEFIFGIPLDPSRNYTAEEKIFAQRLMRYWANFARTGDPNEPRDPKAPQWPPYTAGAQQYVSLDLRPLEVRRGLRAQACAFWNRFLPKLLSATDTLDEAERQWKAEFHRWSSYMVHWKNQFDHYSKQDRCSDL

As to `Cc1ccc2c(c1)sc(-c1ccc(N(C)C)cc1)[n+]2C` [Thioflavin T], the Kd was 1000 nM.
